The results in this text go back to patent publication US12685776B2, “Arginine methyltransferase 5 (PRMT5) degraders and uses thereof” (DANA-FARBER CANCER INSTITUTE, INC., priority 2020, dated 2026).

One data set concerns the target T1, PRMT5 (Homo sapiens, UniProt O14744).
T1 construct: endogenous in cells; host or cells: HL60
The data set can be described thus: Immunoblot analysis of HL60 cells, PRMT5 degradation. The settings on record: 24 hours, FIG. 4B. Format: cell-based. The protocol: (§1) FIG. 4B is an image showing an immunoblot analysis of HL60 cells treated with different concentrations (μM) of inventive bifunctional compound 14 for 24 hours.
(§2) Protein lysates were subjected to immunoblot analysis using anti-Rpn13, anti-betaActin, anti-H4R3Me2s, anti-H3, anti-RPN1 and anti-RPN10.

Another data set concerns the target T2, RPN13 (Homo sapiens, UniProt Q16186).
T2 construct: endogenous in cells; host or cells: HL60
The data set can be described thus: Immunoblot analysis of HL60 cells, RPN13 degradation. The settings on record: 24 hours, FIG. 4B. Format: cell-based. The protocol: as §1, §2
Background: A western blot detects proteins with antibodies after separation by electrophoresis.

The subject of another data set is HL60 cells. Kind of data set: Immunoblot analysis of HL60 cells, blotted targets. It is filed as cell-based. The settings on record: FIG. 4A. The protocol:
FIG. 4A is an image showing an immunoblot analysis of HL60 cells treated with different concentrations (μM) of inventive bifunctional compound 13 for 24 hours and 48 hours.
as §2

The subject of a further data set is H661 cells. The data set can be described thus: Cell-proliferation assay (CellTiter-Glo 2.0) in H661 cells. Format: cell-based, human. The settings on record: FIG. 3B. The protocol:
(§3) Inventive bifunctional compounds 1 and 2 were tested in the A427 (anon-small cell lung cancer (NSCLC) cell line) and H661(human lung large cell carcinoma) cells. CellTiter-Glo® 2.0 Cell Viability Assay (Promega™) was used to measure cell growth (proliferation) inhibition and to report the ATP level reduction in cells after treatment with the bifunctional compounds.
Background: In ATP-based viability assays light output follows the ATP content of the culture.

Another data set addresses PRMT5/MEP50 (Homo sapiens, UniProt O14744). Kind of data set: PRMT5 activity inhibition, AlphaLISA assay. It is filed as biochemical. The settings on record: PRMT5/MEP50 with biotinylated histone tail, FIG. 2A. The protocol:
PMRT5 inhibition in HEK 293 WT cells was determined by AlphaLISA® assay (PerkinElmer®) according to manufacturer's instructions. The biotinylated Histone 4 […] histone tail was incubated with PRMT5/MEP50 and inventive bifunctional compounds 1-9, cereblon-based bifunctional compound PRMT5-58, PRMT5 inhibitors EPZ15666 and LLY-283 and RPN13 inhibitor RA190. Then the H4R3symetric Me2 antibody coated beads together with streptavidin beads were incubated together. Assays were processed by EnVision® multimode plate reader (PerkinElmer®).
On the technique in general: Alpha assays give light when donor and acceptor beads are brought close together.

Another data set has as its system A427 cells. The data set can be described thus: Cell-proliferation assay (CellTiter-Glo 2.0) in A427 cells. It is filed as cell-based. The settings on record: FIG. 3A. As for the experimental part: as §3

T1 sequence (O14744 whole entry): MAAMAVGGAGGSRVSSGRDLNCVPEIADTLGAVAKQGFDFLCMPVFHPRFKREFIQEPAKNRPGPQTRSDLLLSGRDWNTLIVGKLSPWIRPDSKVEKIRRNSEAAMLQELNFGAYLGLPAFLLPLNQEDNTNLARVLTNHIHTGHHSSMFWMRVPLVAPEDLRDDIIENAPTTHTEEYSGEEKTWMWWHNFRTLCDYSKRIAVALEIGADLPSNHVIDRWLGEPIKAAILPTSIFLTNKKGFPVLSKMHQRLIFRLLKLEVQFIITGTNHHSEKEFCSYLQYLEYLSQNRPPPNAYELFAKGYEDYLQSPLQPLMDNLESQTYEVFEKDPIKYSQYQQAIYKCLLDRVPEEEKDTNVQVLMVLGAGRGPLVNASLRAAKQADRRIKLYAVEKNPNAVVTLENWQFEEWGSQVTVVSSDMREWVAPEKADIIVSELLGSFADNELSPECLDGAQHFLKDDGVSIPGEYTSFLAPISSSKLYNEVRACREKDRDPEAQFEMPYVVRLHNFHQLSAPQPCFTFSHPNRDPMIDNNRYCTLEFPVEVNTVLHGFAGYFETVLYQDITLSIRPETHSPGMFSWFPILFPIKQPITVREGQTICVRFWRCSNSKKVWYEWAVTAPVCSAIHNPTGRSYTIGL
T1 sequence (Q9BQA1 whole entry partner): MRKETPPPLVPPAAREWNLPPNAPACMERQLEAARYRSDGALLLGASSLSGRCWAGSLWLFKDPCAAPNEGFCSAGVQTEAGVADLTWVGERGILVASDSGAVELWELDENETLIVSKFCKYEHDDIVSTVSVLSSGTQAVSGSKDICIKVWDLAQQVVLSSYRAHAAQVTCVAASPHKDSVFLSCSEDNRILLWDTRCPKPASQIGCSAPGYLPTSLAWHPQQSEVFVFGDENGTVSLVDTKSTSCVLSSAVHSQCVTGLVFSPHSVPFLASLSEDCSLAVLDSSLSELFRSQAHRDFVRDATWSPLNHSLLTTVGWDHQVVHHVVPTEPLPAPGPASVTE
T2 sequence (Q16186 whole entry): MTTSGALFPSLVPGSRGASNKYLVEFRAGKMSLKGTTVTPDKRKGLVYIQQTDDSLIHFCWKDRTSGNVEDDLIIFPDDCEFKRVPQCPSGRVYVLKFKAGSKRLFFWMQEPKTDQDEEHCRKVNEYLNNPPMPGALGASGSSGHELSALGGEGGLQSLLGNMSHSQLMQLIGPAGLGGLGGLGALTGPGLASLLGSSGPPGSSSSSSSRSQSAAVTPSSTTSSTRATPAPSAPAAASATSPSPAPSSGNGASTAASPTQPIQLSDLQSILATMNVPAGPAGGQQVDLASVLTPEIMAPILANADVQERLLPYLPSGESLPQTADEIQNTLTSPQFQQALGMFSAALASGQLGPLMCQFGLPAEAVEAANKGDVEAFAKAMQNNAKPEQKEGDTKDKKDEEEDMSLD
Sequence of PRMT5/MEP50 (O14744 whole entry): as the sequence (O14744 whole entry) above
Sequence of PRMT5/MEP50 (Q9BQA1 whole entry partner): as the sequence (Q9BQA1 whole entry partner) above

In the case of `O=C(CCCC(=O)N1CCC(Nc2cc(C(=O)NC[C@@H](O)CN3CCc4ccccc4C3)ncn2)CC1)N[C@@H](Cc1ccccc1)C(=O)N1C/C(=C\c2ccc(Cl)c(Cl)c2)C(=O)/C(=C/c2ccc(Cl)c(Cl)c2)C1` [Compound 14, 6-((1-(5-(((S)-1-(3,5-bis((E)-3,4-dichlorobenzylidene)-4-oxopiperidin-1-yl)-1-oxo-3-phenylpropan-2-yl)amino)-5-oxopentanoyl)piperidin-4-yl)amino)-N-((R)-3-(3,4-dihydroisoquinolin-2(1H)-yl)-2-hydroxypropyl)pyrimidine-4-carboxamide], at PRMT5, the “concentration resulting in degradation of PRMT5” value is 1 µM and the “concentration with complete loss of PRMT5” value was 3 µM. Moreover, on RPN13, the “concentration resulting in degradation of RPN13” value is 1 µM and the “concentration with complete loss of RPN13” value amounted to 3 µM.
Regarding `O=C(CNc1cc(C(=O)NC[C@H](O)CN2CCc3ccccc3C2)ncn1)NCCCCCCC(=O)N[C@@H](Cc1ccccc1)C(=O)N1C/C(=C\c2ccc([N+](=O)[O-])cc2)C(=O)/C(=C/c2ccc([N+](=O)[O-])cc2)C1` [Compound 13, 6-((2-((7-(((S)-1-(3,5-bis((E)-4-nitrobenzylidene)-4-oxopiperidin-1-yl)-1-oxo-3-phenylpropan-2-yl)amino)-7-oxoheptyl)amino)-2-oxoethyl)amino)-N-((S)-3-(3,4-dihydroisoquinolin-2(1H)-yl)-2-hydroxypropyl)pyrimidine-4-carboxamide], in the data set with HL60 cells (24 and 48 hours), the “degradation of blotted targets” value is “minimum degradation”. In the data set on HL60 cells, the “concentration tolerated in the cell” value is recorded as “up to 10 μM”.
Consider `O=C(CCCC(=O)N[C@@H](Cc1ccccc1)C(=O)N1C/C(=C\c2ccc(Cl)c(Cl)c2)C(=O)/C(=C/c2ccc(Cl)c(Cl)c2)C1)NCCCC(=O)N1CC(Nc2cc(C(=O)NC[C@H](O)CN3CCc4ccccc4C3)ncn2)C1` [Compound 1, N1-((S)-1-(3,5-bis((E)-3,4-dichlorobenzylidene)-4-oxopiperidin-1-yl)-1-oxo-3-phenylpropan-2-yl)-N5-(4-(3-((6-(((S)-3-(3,4-dihydroisoquinolin-2(1H)-yl)-2-hydroxypropyl)carbamoyl)pyrimidin-4-yl)amino)azetidin-1-yl)-4-oxobutyl)glutaramide], for which the “inhibition of cell growth (proliferation)” value with H661 cells and with A427 cells was “effectively inhibited growth” each time. The PRMT5 activity inhibition result at PRMT5/MEP50 was “successfully inhibited PRMT5 function”.
